Test results from patent US20100273740A1 (priority 2004, published 2010).
Values after ≈ are worked out from the molar mass of the structure shown.

Experiments:
[1] = system: Urbani strain of SARS CoV; test: organism not typed; assay type: cell-based; conditions: Vero, read-out: Effective Conc. (EC50) Against SARS CoV
Vero cells = test: cells; assay type: cell-based; conditions: Chlorocebus sabaeus, read-out: Inhibitory Conc. (IC50) Cell Growth
SARS = conditions: cited from earlier work
[2] = cited from earlier work
SARS-CoV = conditions: cited from earlier work
[3] = Cell viability of uninfected human foreskin fibroblast drug control wells; assay type: cell-based; conditions: uninfected human foreskin fibroblast cells; read-out: Cytotoxic Conc. (IC50) Cell Growth

With `CCCCCCCCCCCC(=O)NCC(COP(=O)([O-])OCC[N+](C)(C)C)OCCCC` (stereo not shown) [NHCOC11H23 OC3H6CH3 PC, 3-dodecanamido-2-butyloxypropyl-1-phosphocholine] the EC50 [1] was 3 µg/mL (≈ 6.06 µM) and the IC50 (Vero cells) was 40 µg/mL (≈ 80.9 µM).
For `NC(=O)c1ncn([C@@H]2O[C@H](CO)[C@@H](O)[C@H]2O)n1` [Ribavirin, 1-β-D-ribofuranosyl-1-1,2,4-triazole-3-carboxamide], the “Benefit in SARS patients” value (SARS) is listed as “has not been observed to be of benefit”, the “Patients with serum amino transferase levels reduced to normal” value [2] is listed as 40% and the “Effect on viral serum levels” value ([2]; patients) is listed as “does not lower viral serum levels”.
For interferon beta, the “Activity in vitro against SARS-CoV” value (SARS-CoV) is given as “effective in vitro against SARS-CoV”.
In the case of `CCCCCCCCCCOC(CNC(=O)CCCCCCCCC)COP(=O)([O-])OCC[N+](C)(C)C` (stereo not shown) [NHCOC9H19 OC9H18CH3 PC, 3-decanamido-2-decyloxypropyl-1-phosphocholine], the IC50 [3] is reported as 75 µg/mL (≈ 136 µM).
